Reference: publication PMC12299463, “Cladolosides of Groups S and T: Triterpene Glycosides from the Sea Cucumber Cladolabes schmeltzii with Unique Sulfation; Human Breast Cancer Cytotoxicity and QSAR” (Marine Drugs, 2025)
Like-named read-outs stand apart in the source and are kept apart here.

Columns and labels:
human erythrocytes = test: Hemolytic activity against human erythrocytes; assay type: cell-based; conditions: for ED50, Erythrocytes (hemolytic activity): 1 h at 37 °C
Experimental: A total of 450 g of human blood (B(III) Rh+) was used to obtain erythrocytes by centrifuging three times for 5 min with phosphate-buffered saline (PBS) (pH 7.4) at 4 °C on a centrifuge LABOFUGE 400R (Heraeus, Hanau, Germany). Ice-cold PBS (pH 7.4) was used for resuspension of erythrocyte residue to a final optical density of 1.5 at 700 nm. Then, 20 µL of tested compound solutions or control (cucumarioside A0-1 [15]) were added to 180 µL of erythrocyte suspension in V-bottom 96-well plates and incubated for 1 h at 37 °C. After centrifugation (900 g, 10 min, laboratory centrifuge LMC-3000 (Biosan, Riga, Latvia)), 100 µL of supernatant was transferred into new flat plates. The values of erythrocyte lysis were measured on microplate photometer Multiskan FC (Thermo Fisher Scientific, Waltham, MA, USA) at λ = 570 nm as hemoglobin concentration in supernatant. […] All the experiments were carried out in triple repetitions, p < 0.05.

[1] = system: MCF-7 human breast cancer cells; test: cells; assay type: cell-based; conditions: for IC50: MTT assay, MCF-7, read-out: Cytotoxicity, IC50, MCF-7; for Selectivity Index (SI), MCF-7: ratio of IC50 for healthy (MCF-10A) and MCF-7 cells;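 for all read-outs here: IC50 values, including those behind the selectivity ratio, derive from formazan absorbance at 570 nm, tested in triplicate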
[2] = system: MCF-10A non-tumor mammary epithelial cell line; test: in vitro; assay type: cell-based, human; conditions: MCF-10A; for IC50: MTT assay, read-out: Cytotoxicity, IC50, MCF-10A
[3] = system: T-47D human breast cancer cells; test: cells; assay type: cell-based; conditions: for IC50: MTT assay, T-47D, read-out: Cytotoxicity, IC50, T-47D; for Selectivity Index (SI), T-47D: ratio of IC50 for healthy (MCF-10A) and T-47D cells;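 for all read-outs here: cell viability read as absorbance of formazan dye at 570 nm, each experiment run in triplicate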
[4] = system: MDA-MB-231 triple-negative breast cancer cells; test: cells; assay type: cell-based, human; conditions: for IC50: MTT assay, MDA-MB-231, read-out: Cytotoxicity, IC50, MDA-MB-231; for Selectivity Index (SI), MDA-MB-231: ratio of IC50 for healthy (MCF-10A) and MDA-MB-231 cells

SMILES | Hemolytic (membranolytic) activity, in words (human erythrocytes) | ED50, Erythrocytes (hemolytic activity) (human erythrocytes) [µM] | IC50 [1] [µM] | Selectivity Index (SI), MCF-7 [1] | IC50 [2] [µM] | IC50 [3] [µM] | Selectivity Index (SI), T-47D [3] | IC50 [4] [µM] | Selectivity Index (SI), MDA-MB-231 [4] | also measured
C=C(C)CC[C@@H](OC(C)=O)[C@]1(C)OC(=O)C23CC=C4[C@@H](CC[C@H]5C(C)(C)[C@@H](O[C@@H]6OC[C@@H](O[C@@H]7OC[C@@H](O)[C@H](O[C@@H]8O[C@H](CO)[C@@H](O)[C@H](O)[C@H]8O)[C@H]7O)[C@H](O)[C@H]6O[C@@H]6O[C@H](C)[C@@H](O[C@@H]7OC[C@@H](O)[C@H](O[C@@H]8O[C@H](CO)[C@@H](O)[C@H](OC)[C@H]8O)[C@H]7O)[C@H](O)[C@H]6O)CC[C@]45C)[C@]2(C)C[C@H](OC(C)=O)[C@@H]31 (stereo partly drawn) [Cladoloside D (18), Cladoloside D] | high activity | 0.29 | 15.3 ± 0.94 | >1.31 | > 20 | 14.9 ± 0.85 | >1.34 | 2.98 ± 0.24 | >6.7 | ED50, Erythrocytes (hemolytic activity) (human erythrocytes; listed as D (18)): 0.29 ± 0.03 µM; Toxicity to normal mammary cells MCF-10A, in words [2]: non-toxic
C=C(C)CC[C@@H](OC(C)=O)[C@]1(C)OC(=O)C23CC=C4[C@@H](CC[C@H]5C(C)(C)[C@@H](O[C@@H]6OC[C@@H](O[C@@H]7OC[C@@H](O)[C@H](O[C@@H]8O[C@H](CO)[C@@H](O)[C@H](OC)[C@H]8O)[C@H]7O)[C@H](O)[C@H]6O[C@@H]6O[C@H](C)[C@@H](O[C@@H]7OC[C@@H](O)[C@H](O[C@@H]8O[C@H](CO)[C@@H](O)[C@H](OC)[C@H]8O)[C@H]7O)[C@H](O)[C@H]6O)CC[C@]45C)[C@]2(C)C[C@H](OC(C)=O)[C@@H]31 (stereo partly drawn) [Cladoloside G (25), cladoloside G] | high activity | – | > 20 | – | > 20 | > 20 | – | 3.95 ± 0.38 | >5.06 | ED50, Erythrocytes (hemolytic activity) (human erythrocytes; listed as G (25)): 0.35 ± 0.04 µM; ED50, Erythrocytes (hemolytic activity) (human erythrocytes; listed as cladoloside G (25)): 0.35 µM
CO[C@@H]1[C@@H](O)[C@H](O[C@@H]2[C@@H](O)[C@H](O[C@@H]3CO[C@@H](O[C@H]4CC[C@]5(C)C6=CCC78C(=O)O[C@@](C)([C@@H](CCC(C)C)OC(C)=O)[C@H]7[C@@H](OC(C)=O)C[C@@]8(C)[C@@H]6CC[C@H]5C4(C)C)[C@H](O[C@@H]4O[C@H](C)[C@@H](O[C@@H]5OC[C@@H](O)[C@H](O[C@@H]6O[C@H](CO)[C@@H](O)[C@H](OC)[C@H]6O)[C@H]5O)[C@H](O)[C@H]4O)[C@H]3O)O[C@H](C)[C@H]2O)O[C@H](CO)[C@H]1O (stereo partly drawn) [Cladoloside H1 (26), Cladoloside H1] | – | 0.21 ± 0.02 | 15.9 ± 1.14 | – | > 20 | 13.2 ± 0.72 | – | 2.47 ± 0.32 | – | Toxicity to normal mammary cells MCF-10A, in words [2]: non-toxic
CO[C@@H]1[C@@H](O)[C@H](O[C@@H]2[C@@H](O)[C@H](O[C@H]3[C@H](O)[C@@H](O)[C@H](O[C@H]4[C@H](O[C@H]5CC[C@]6(C)C7=CCC89C(=O)O[C@@](C)([C@@H](CCC(C)C)OC(C)=O)[C@H]8[C@@H](OC(C)=O)C[C@@]9(C)[C@@H]7CC[C@H]6C5(C)C)OC[C@@H](O[C@@H]5O[C@H](CO)[C@@H](O)[C@H](O)[C@H]5O)[C@@H]4O)O[C@@H]3C)OC[C@H]2O)O[C@H](COS(=O)(=O)[O-])[C@H]1O.[Na+] (stereo partly drawn) [Cladoloside I1 (28), cladoloside I1] | – | – | 11.2 ± 1.02 | 1.20 | 13.4 ± 0.92 | 9.91 ± 0.68 | 1.36 | 3.02 ± 0.28 | 4.45 | ED50, Erythrocytes (hemolytic activity) (human erythrocytes; listed as I1 (28)): 1.72 ± 0.10 µM; ED50, Erythrocytes (hemolytic activity) (human erythrocytes; listed as cladoloside I1 (28)): 1.72 µM
C=C(C)CCC[C@]1(C)OC(=O)C23CC=C4[C@@H](CC[C@H]5C(C)(C)[C@@H](O[C@@H]6OC[C@@H](O[C@@H]7O[C@H](CO)[C@@H](O)[C@H](O[C@@H]8O[C@H](COS(=O)(=O)[O-])[C@@H](O)[C@H](OC)[C@H]8O)[C@H]7O)[C@H](O)[C@H]6O[C@@H]6O[C@H](C)[C@@H](O[C@@H]7OC[C@@H](O)[C@H](O)[C@H]7O)[C@H](O)[C@H]6O)CC[C@]45C)[C@]2(C)CC(=O)[C@@H]31.[Na+] (stereo partly drawn) [Cladoloside J1 (30), Cladoloside J1] | – | 1.10 ± 0.10 | > 20 | – | > 20 | > 20 | – | 6.18 ± 0.54 | >3.24 | –
CO[C@@H]1[C@@H](O)[C@H](O[C@@H]2[C@@H](O)[C@H](O[C@@H]3CO[C@@H](O[C@H]4CC[C@]5(C)C6=CCC78C(=O)O[C@@](C)([C@@H](CCC(C)C)OC(C)=O)[C@H]7[C@@H](OC(C)=O)C[C@@]8(C)[C@@H]6CC[C@H]5C4(C)C)[C@H](O[C@@H]4O[C@H](C)[C@@H](O[C@@H]5OC[C@@H](O)[C@H](O[C@@H]6O[C@H](COS(=O)(=O)[O-])[C@@H](O)[C@H](OC)[C@H]6O)[C@H]5O)[C@H](O)[C@H]4O)[C@H]3O)O[C@H](CO)[C@H]2O)O[C@H](CO)[C@H]1O.[Na+] (stereo partly drawn) [Cladoloside K1 (31), cladoloside K1] | – | – | > 20 | – | > 20 | 12.1 ± 1 | >1.65 | 5.83 ± 0.41 | – | ED50, Erythrocytes (hemolytic activity) (human erythrocytes; listed as K1 (31)): 0.31 ± 0.02 µM; ED50, Erythrocytes (hemolytic activity) (human erythrocytes; listed as cladoloside K1 (31)): 0.31 µM
C=C(C)CC[C@@H](O)[C@]1(C)OC(=O)C23CC=C4[C@@H](CC[C@H]5C(C)(C)[C@@H](O[C@@H]6OC[C@@H](O[C@@H]7O[C@H](CO)[C@@H](O)[C@H](O[C@@H]8O[C@H](CO)[C@@H](O)[C@H](OC)[C@H]8O)[C@H]7O)[C@H](O)[C@H]6O[C@@H]6O[C@H](C)[C@@H](O[C@@H]7OC[C@@H](O)[C@H](O[C@@H]8O[C@H](COS(=O)(=O)[O-])[C@@H](O)[C@H](OC)[C@H]8O)[C@H]7O)[C@H](O)[C@H]6O)CC[C@]45C)[C@]2(C)C[C@H](OC(C)=O)[C@@H]31.[Na+] (stereo partly drawn) [Cladoloside K2 (32), cladoloside K2] | – | – | > 20 | – | 14.5 ± 1.07 | 14.1 ± 0.91 | 1.03 | 6.81 ± 0.73 | – | ED50, Erythrocytes (hemolytic activity) (human erythrocytes; listed as K2 (32)): 4.63 ± 0.41 µM; ED50, Erythrocytes (hemolytic activity) (human erythrocytes; listed as cladoloside K2 (32)): 4.63 µM
C=C(C)CCC[C@]1(C)OC(=O)C23CC=C4[C@@H](CC[C@H]5C(C)(C)[C@@H](O[C@@H]6OC[C@@H](O[C@@H]7O[C@H](CO)[C@@H](O)[C@H](O[C@@H]8O[C@H](COS(=O)(=O)[O-])[C@@H](O)[C@H](OC)[C@H]8O)[C@H]7O)[C@H](O)[C@H]6O[C@@H]6O[C@H](C)[C@@H](O[C@@H]7OC[C@@H](O)[C@H](O[C@@H]8O[C@H](CO)[C@@H](O)[C@H](OC)[C@H]8O)[C@H]7O)[C@H](O)[C@H]6O)CC[C@]45C)[C@]2(C)CC(=O)[C@@H]31.[Na+] (stereo partly drawn) [Cladoloside L1 (33), Cladoloside L1] | strong hemolytics | 0.20 ± 0.02 | 12.7 ± 1.01 | 1.41 | 17.9 ± 1.12 | 9.03 ± 0.81 | 1.98 | 13.4 ± 1.08 | 1.34 | –
C=C(C)CCC[C@]1(C)OC(=O)C23CC=C4[C@@H](CC[C@H]5C(C)(C)[C@@H](O[C@@H]6OC[C@@H](O[C@@H]7O[C@H](CO)[C@@H](O)[C@H](O[C@@H]8O[C@H](CO)[C@@H](O)[C@H](OC)[C@H]8O)[C@H]7O)[C@H](O)[C@H]6O[C@@H]6O[C@H](C)[C@@H](O[C@@H]7O[C@H](CO)[C@@H](O)[C@H](O[C@@H]8O[C@H](CO)[C@@H](O)[C@H](OC)[C@H]8O)[C@H]7O)[C@H](O)[C@H]6O)CC[C@]45C)[C@]2(C)CC(=O)[C@@H]31 (stereo partly drawn) [Cladoloside M1 (35), cladoloside M1] | – | 0.08 ± 0.01 | > 20 | – | 9.81 ± 0.86 | 17.1 ± 1.52 | 0.57 | 5.05 ± 0.38 | 1.94 | Hemolytic (membranolytic) activity, in words (human erythrocytes; listed as M1 (35)): strong hemolytics; Hemolytic (membranolytic) activity, in words (human erythrocytes; listed as cladoloside M1 (35)): most active compound
C=C(C)CCC[C@]1(C)OC(=O)C23CC=C4[C@@H](CC[C@H]5C(C)(C)[C@@H](O[C@@H]6OC[C@@H](O[C@@H]7O[C@H](CO)[C@@H](O)[C@H](O[C@@H]8O[C@H](CO)[C@@H](O)[C@H](OC)[C@H]8O)[C@H]7O)[C@H](O)[C@H]6O[C@@H]6O[C@H](C)[C@@H](O[C@@H]7OC[C@@H](O)[C@H](O[C@@H]8O[C@H](CO)[C@@H](O)[C@H](O)[C@H]8O)[C@H]7O)[C@H](O)[C@H]6O)CC[C@]45C)[C@]2(C)CC(=O)[C@@H]31 (stereo partly drawn) [Cladoloside P2 (41), Cladoloside P2] | strong hemolytics | 0.17 ± 0.02 | 16.3 ± 1.03 | 0.68 | 11.1 ± 0.74 | 10.6 ± 0.61 | 1.05 | 6.92 ± 0.44 | 1.60 | –
